Columns and labels:
[1] = system: T1, Receptor-type tyrosine-protein kinase FLT3 (Homo sapiens), P36888 [D835Y]; assay: Inhibition of human FLT3 D835Y mutant catalytic domain expressed in baculovirus assessed as substrate phosphorylation using fluorescence-labelled peptides as substrate at […] after 90 mins by microfluidic peptide phosphorylation assay
T1 sequence (whole entry): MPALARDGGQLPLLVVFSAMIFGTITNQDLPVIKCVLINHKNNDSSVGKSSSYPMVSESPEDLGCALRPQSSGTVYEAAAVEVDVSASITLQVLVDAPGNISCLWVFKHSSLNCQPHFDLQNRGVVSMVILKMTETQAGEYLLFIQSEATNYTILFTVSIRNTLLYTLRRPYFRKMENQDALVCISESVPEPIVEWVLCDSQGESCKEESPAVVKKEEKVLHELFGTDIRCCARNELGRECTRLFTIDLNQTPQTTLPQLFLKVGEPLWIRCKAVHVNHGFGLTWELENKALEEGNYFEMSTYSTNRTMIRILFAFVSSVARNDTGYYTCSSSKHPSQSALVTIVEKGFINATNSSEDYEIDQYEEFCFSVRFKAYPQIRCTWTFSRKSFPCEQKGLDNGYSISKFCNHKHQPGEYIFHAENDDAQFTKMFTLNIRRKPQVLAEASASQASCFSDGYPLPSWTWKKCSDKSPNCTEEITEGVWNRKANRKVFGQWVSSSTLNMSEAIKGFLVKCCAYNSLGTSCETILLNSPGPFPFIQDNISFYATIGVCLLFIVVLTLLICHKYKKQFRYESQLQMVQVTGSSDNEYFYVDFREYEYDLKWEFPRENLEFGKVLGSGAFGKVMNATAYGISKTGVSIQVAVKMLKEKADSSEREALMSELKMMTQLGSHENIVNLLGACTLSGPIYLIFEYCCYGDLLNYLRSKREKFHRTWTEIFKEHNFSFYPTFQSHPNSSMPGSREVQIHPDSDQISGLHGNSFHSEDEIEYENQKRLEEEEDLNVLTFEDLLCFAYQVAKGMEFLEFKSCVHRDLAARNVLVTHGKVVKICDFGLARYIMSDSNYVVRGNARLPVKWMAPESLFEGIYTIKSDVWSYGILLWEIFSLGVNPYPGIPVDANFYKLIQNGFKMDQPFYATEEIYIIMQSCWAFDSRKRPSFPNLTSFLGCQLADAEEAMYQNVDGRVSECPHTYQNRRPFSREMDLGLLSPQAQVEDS

[2] = molecular target: T2, Serine/threonine-protein kinase Sgk1 (Homo sapiens) (UniProt O00141); assay: Inhibition of human truncated SGK1 expressed in baculovirus assessed as substrate phosphorylation using fluorescence-labelled peptides as substrate at 9 uM after 90 mins by microfluidic peptide phosphorylation assay
T2 sequence (whole entry): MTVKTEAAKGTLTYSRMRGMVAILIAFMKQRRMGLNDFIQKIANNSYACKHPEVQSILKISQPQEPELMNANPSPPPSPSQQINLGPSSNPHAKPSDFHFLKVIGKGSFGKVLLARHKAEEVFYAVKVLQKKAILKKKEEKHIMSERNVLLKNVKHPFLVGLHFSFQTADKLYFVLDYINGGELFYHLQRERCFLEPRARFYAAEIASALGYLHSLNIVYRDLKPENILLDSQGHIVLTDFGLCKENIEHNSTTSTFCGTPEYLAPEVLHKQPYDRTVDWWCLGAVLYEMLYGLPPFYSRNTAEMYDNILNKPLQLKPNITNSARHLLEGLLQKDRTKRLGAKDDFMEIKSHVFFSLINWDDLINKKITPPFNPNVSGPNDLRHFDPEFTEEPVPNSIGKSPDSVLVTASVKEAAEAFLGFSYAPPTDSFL

[3] = molecular target: T3, Cytoplasmic tyrosine-protein kinase BMX (Homo sapiens) (UniProt P51813); assay: Inhibition of human full length BMX expressed in baculovirus assessed as substrate phosphorylation using fluorescence-labelled peptides as substrate at 95 uM after 90 mins by microfluidic peptide phosphorylation assay
T3 sequence (whole entry): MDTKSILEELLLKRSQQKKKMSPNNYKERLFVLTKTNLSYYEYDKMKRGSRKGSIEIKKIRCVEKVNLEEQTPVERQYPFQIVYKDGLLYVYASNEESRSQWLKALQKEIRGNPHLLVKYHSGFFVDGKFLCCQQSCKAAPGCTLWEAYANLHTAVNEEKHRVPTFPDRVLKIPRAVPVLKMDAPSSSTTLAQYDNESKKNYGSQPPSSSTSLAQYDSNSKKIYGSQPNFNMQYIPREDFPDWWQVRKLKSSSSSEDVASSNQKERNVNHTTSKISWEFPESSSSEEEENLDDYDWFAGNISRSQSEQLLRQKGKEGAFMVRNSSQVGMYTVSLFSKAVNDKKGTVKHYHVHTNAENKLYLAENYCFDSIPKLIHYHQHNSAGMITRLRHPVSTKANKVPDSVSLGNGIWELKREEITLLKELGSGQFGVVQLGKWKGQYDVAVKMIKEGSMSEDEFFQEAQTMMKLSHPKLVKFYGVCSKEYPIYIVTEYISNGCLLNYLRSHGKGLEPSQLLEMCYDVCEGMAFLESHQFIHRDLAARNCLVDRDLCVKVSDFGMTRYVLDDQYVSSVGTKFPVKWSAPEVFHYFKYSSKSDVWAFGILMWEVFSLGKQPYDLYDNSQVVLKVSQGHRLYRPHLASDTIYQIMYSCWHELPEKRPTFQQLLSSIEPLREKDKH

[4] = system: Tyrosine-protein kinase ABL1 (Homo sapiens), P00519 [T315I]; assay: Inhibition of human truncated ABL T315I mutant expressed in baculovirus assessed as substrate phosphorylation using fluorescence-labelled peptides as substrate at 8 uM after 90 mins by microfluidic peptide phosphorylation assay
[5] = molecular target: MAP kinase-activated protein kinase 3 (Homo sapiens) (UniProt Q16644); assay: Inhibition of human full length MAPKAPK3 expressed in Escherichia coli cell assessed as substrate phosphorylation using fluorescence-labelled peptides as substrate at 2 uM after 90 mins by microfluidic peptide phosphorylation assay
MAP kinase-activated protein kinase 3 (Homo sapiens), sequence (Q16644 whole entry, looked up): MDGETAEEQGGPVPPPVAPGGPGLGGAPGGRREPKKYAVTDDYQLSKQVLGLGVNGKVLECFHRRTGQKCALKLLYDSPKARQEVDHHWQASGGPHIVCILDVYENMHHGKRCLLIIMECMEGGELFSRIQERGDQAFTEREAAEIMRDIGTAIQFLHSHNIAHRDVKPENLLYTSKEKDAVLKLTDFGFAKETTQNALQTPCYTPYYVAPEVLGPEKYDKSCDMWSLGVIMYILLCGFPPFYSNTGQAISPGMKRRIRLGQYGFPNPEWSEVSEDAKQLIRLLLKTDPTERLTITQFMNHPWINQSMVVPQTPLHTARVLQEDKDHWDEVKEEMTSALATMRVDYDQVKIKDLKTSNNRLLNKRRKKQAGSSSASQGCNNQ

[6] = molecular target: T4, Calcium/calmodulin-dependent protein kinase type IV (Homo sapiens) (UniProt Q16566); assay: Inhibition of human full length CAMK4 expressed in baculovirus assessed as substrate phosphorylation using fluorescence-labelled peptides as substrate at 2 uM after 90 mins by microfluidic peptide phosphorylation assay
T4 sequence (whole entry): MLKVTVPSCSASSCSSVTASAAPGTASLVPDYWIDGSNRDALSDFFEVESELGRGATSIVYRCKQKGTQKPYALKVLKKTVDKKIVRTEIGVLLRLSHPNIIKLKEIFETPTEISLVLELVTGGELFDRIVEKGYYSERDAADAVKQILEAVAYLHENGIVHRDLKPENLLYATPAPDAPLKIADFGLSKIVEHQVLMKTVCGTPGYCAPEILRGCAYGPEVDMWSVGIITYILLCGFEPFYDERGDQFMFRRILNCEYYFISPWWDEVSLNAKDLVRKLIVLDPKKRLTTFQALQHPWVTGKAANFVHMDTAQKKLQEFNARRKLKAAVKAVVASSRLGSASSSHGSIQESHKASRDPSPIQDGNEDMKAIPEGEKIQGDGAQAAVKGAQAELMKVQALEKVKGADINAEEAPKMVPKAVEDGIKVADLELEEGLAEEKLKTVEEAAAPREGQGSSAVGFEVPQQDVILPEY

COC(=O)c1cnc(Nc2cnc(C#N)cn2)cc1NCC1CCNCC1 gave an inhibition [1] of 63%.

With NCC1CN(c2ncnc3[nH]c4cnccc4c23)CCO1 (stereo unspecified) the inhibition [2] was 51%.

With NCCc1ccc(-c2ncnc3[nH]cnc23)cc1 the inhibition [3] was 0%.

With NCC1CCN(c2ncnc3[nH]ccc23)CC1 the inhibition [4] was 53%.

Work on NC1CCN(c2ncnc3[nH]ccc23)CC1 yielded an inhibition [5] of 45.5% and an inhibition [6] of 12%.

Source: ChEMBL document CHEMBL3132769, “Fragment growing to retain or alter the selectivity of anchored kinase hinge-binding fragments” (Medchemcomm, 2014)
